Assay [1] concerns the target SCD1 (Rattus norvegicus (Rat), UniProt P07308). The experiment in a line: SCD1 enzymatic assay in rat liver microsomes (RLM). The conditions noted are these: rat liver microsomes; for inhibition at 1 µM / % Inh.@ 1 μM: 1 μM test compound; for inhibition at 1 µM: read-out: % Inh.@ 1 μM. The format is biochemical. The procedure:
Step 1: Preparation of Rat Liver Microsome (RLM):
Sprague Dawley rats from Charles River (200-225 g) underwent 2-cycle of fast-re-feeding (24-hour fast followed by 24-hour feeding with fat-free high carbohydrate diet, Reseach Diet, D00042802). The livers were removed and homogenized 1:4 (w/v) with pre-chilled, homogenizing buffer (10 mM Tris-HCl, 0.25 M sucrose, 1 mM EDTA, pH 7.4, supplemented with protease inhibitor cocktail). The homogenate was spun at 12,000×g for 15 min at 4° C. The supernatant was then re-centrifuged at 100,000×g for 60 min at 4° C. The pellet was re-suspended in 2 ml pre-chilled […] potassium phosphate buffer, pH 7.2, 10 mM EDTA at a concentration of 20 mg/ml. The resulting rat liver microsome (RLM) preparation was stored at −80° C.
Step 2: SCD1 Enzymatic Assay in RLM:
The SCD1 enzymatic assay was done in a volume of 50 μL using 10 μg of RLM (prepared as described above) in a 96-well polypropylene plate (enzyme reaction buffer contains 0.1 M K-Phosphate Buffer, 10 mM ATP, 6 mM MgCl2. 1 mM CoA, 1 mM β-NADH, 1.6 mM L-glutathione, 20 μM Stearoyl-CoA). Stearoyl-[9,10-^3H]-CoA (ARC-0390, 1 mCi/mL, 60 Ci/mmol,) was added at a final concentration of 2 μCi/mL. Test compound was then added to the reaction mixture at the selected concentration. After incubation at room temperature for 2 hours, 5 μL 1 N HCl was added to stop the reaction, followed by addition of 25 μL of 10% charcoal. The reaction mixture was then transferred to 96-well Multiscreen plate (Millipore, Cat#MSFCN6B50). […] The measured cpm values were fitted with Sigmoidal dose-response curve fit with Graphpad Prism.
Background: Liver microsomes are vesicles of endoplasmic reticulum, rich in cytochrome P450 enzymes.

The target of assay [2] is SCD1 (Homo sapiens (Human), UniProt O00767). The experiment in a line: SCD1 13C-palmitic acid assay in A431 cells. In kind it is cell-based. The note with it: read-out: A431 cells 13C-PA IC50. On the procedure: Human epithelial carcinoma A431 cells were seeded at 100,000 cells/well in complete growth medium (DMEM, Cellgro#10-013-CM, 4.5 g/L glucose, 10% FBS) in the presence of 0.05 mg/mL human insulin (Hannas Pharmaceutical Supply Co Inc, Humanlin 100 U/ml, 4 mg/ml) in 96-well tissue culture plate. 24 hr later, the cells were washed extensively with Assay Buffer (DMEM, Cellgro#10-013-CM, 4.5 g/L glucose, supplemented with 0.05 mg/mL Human Insulin and 0.1% Fatty Acid Free BSA). […] The cells were then returned to the tissue culture incubator (37° C. and 5% CO2) for 4 hrs. At the end of incubation, the cells were washed three times with 200 μL/well Hanks buffer (HBSS) and then stored at −20° C. until extraction.
SCD1 (Homo sapiens (Human), UniProt O00767), sequence (O00767 whole entry): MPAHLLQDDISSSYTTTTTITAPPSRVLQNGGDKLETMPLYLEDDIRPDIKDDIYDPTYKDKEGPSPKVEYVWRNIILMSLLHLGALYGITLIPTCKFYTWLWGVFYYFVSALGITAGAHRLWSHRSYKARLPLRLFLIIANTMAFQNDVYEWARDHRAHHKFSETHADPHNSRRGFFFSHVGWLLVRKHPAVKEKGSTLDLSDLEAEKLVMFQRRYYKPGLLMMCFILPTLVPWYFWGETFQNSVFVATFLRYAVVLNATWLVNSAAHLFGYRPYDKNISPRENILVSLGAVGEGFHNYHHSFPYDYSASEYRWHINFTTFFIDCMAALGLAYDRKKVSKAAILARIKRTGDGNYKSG
For fatty acid extraction, after thawing out the plates, 40 μL of 1N KOH (containing 5 μM of internal standard 7,7,8,8-D4 palmitate) was added to each well and cell plates were incubated at 37° C. for 30 minutes. […] Acetonitrile (100 μL) was then added to extract fatty acids, followed by centrifugation at 3000 rpm for 10 minutes. 75 μL of extract was then transferred to a new glass vial in a 96-well cluster plate. 5 μL was injected for LC/MS analysis for detection of ^13C-palmitic acid and ^13C-palmitoleic acid. Formation of product ^13C-palmitoleic acid was determined as an index of SCD1 activity.
LC/MS analysis was performed as following. An Agilent 1100 Liquid Chromatographic System (Palo Alto, Calif.) consisting of a binary pump, a degasser and an autosampler was used. Separation of free fatty acids was performed on a Zorbax SB-C8 column (2.1×50 mm, particle size=3.5 μm). An isocratic elution was carried out with 10 mM triethylamine acetate in water: acetonitrile (3:7) at a flow rate of 0.3 mL/min. The column temperature was set at 30° C. and the sample injection volume was 5 μL. The LC run cycle was 4 min. A Micromass triple-quadrupole Quattro Micro mass […] (Waters, Beverly, Mass.) was interfaced with the LC system through a Z-spray electrospray ion source and was operated in the negative ion mode. Nitrogen was used as nebulizing gas, desolvation gas and cone curtain gas and argon was chosen as collision gas. The triple quadrupole MS source parameters were set as follows: capillary voltage, 3200V; cone voltage, 25V; exctractor 2V; source temperature, 120° C.; desolvation temperature, 300° C.; cone gas flow, 50 L/h; and desolvation gas flow, 700 L/h. […] MassLynx software version 4.0 was used for system control and data processing. The signal of U-^13C-palmitoleic acid was normalized to an internal standard.

Molecules are shown by their SMILES. Several values for one entry are separate records, joined by “and”; a condition that tells them apart may be missing. Identical values can stand only once.

SCD1 (Rattus norvegicus (Rat), UniProt P07308), sequence (P07308 whole entry): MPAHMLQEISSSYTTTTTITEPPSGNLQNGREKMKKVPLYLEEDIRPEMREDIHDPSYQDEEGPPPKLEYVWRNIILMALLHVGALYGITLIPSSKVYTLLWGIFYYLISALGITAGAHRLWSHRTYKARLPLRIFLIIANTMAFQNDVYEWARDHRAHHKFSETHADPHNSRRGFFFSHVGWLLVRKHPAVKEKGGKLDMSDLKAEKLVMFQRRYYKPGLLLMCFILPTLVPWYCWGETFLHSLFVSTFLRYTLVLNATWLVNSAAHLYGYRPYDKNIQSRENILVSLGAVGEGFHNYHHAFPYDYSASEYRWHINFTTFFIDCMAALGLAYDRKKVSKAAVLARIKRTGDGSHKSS

What is called IC50 is the concentration at which inhibition is half-maximal. With `OCCc1cnn(-c2ccc(N3CCC(N4CCc5ccc(F)cc54)CC3)nn2)c1` [Compound #43, 2-(1-(6-(4-(6-fluoroindolin-1-yl)piperidin-1-yl)pyridazin-3-yl)-1H-pyrazol-4-yl)ethanol], the inhibition at 1 µM on SCD1 [1] is 90%. In addition, the IC50 worked out at 0.02 µM on SCD1 [1] and 0.011 µM at SCD1 [2].

Consider `CN(C)c1ccc(-c2ccc(N3CCC(N4CCc5ccc(F)cc54)CC3)nn2)cn1` [Compound #44, 5-(6-(4-(6-fluoroindolin-1-yl)piperidin-1-yl)pyridazin-3-yl)-N,N-dimethylpyridin-2-amine], for which, on SCD1 [1], the “% Inh.@ 1 μM” value came to 97%; the inhibition at 1 µM was found to be 92%; the IC50 was 0.02 µM and 0.014 µM. Moreover, the IC50 on SCD1 [2] is 0.032 µM and 0.028 µM.

Consider `Cn1cc(-c2ccc(N3CCC(N4CCc5cc(F)ccc54)CC3)nn2)cn1` [Compound #46, 5-fluoro-1-(1-(6-(1-methyl-1H-pyrazol-4-yl)pyridazin-3-yl)piperidin-4-yl)indoline], for which, on SCD1 [1], the inhibition at 1 µM was 85% and half-maximal inhibition (IC50) was put at 0.165 µM. Further, the IC50 at SCD1 [2] is 0.099 µM.

As to `OCc1ccc(-c2ccc(N3CCC(N4CCc5ccc(F)cc54)CC3)nn2)cc1` [Compound #51], on SCD1 [1], the inhibition at 1 µM was 96%. Also, the values for the IC50 on SCD1 [1] and on SCD1 [2] were 0.022 µM and 0.008 µM, respectively.

As for `Cc1ccc(-c2ccc(N3CCC(N4CCc5ccc(F)cc54)CC3)nn2)s1` [Compound #52, 6-fluoro-1-(1-(6-(5-methylthiophen-2-yl)pyridazin-3-yl)piperidin-4-yl)indoline], at SCD1 [1], the inhibition at 1 µM was 92% and the IC50 was 0.121 µM. Also, the concentration for half-maximal inhibition (IC50) at SCD1 [2] was determined as 0.006 µM.

Consider `Fc1ccc2c(c1)N(C1CCN(c3ccc(-c4ccc(C(F)(F)F)cc4)nn3)CC1)CC2` [Compound #54, 6-fluoro-1-(1-(6-(4-(trifluoromethyl)phenyl)pyridazin-3-yl)piperidin-4-yl)indoline], for which, at SCD1 [1], the inhibition at 1 µM was 85% and the concentration for half-maximal inhibition (IC50) worked out at 0.09 µM. For the same compound, the IC50 on SCD1 [2] was 0.054 µM.

Consider `Cc1ccc2c(c1)N(C1CCN(c3ccc(-c4cnn(C)c4)nn3)CC1)CC2` [Compound #57, 6-methyl-1-(1-(6-(1-methyl-1H-pyrazol-4-yl)pyridazin-3-yl)piperidin-4-yl)indoline], for which, at SCD1 [1], the inhibition at 1 µM worked out at 72% and the IC50 turned out to be 0.286 µM. Moreover, the IC50 on SCD1 [2] was determined as 0.241 µM.

For `O=C(O)c1ccc(-c2ccc(N3CCC(N4CCc5ccc(F)cc54)CC3)nn2)cc1` [Compound #58, 4-(6-(4-(6-fluoroindolin-1-yl)piperidin-1-yl)pyridazin-3-yl)benzoic acid], on SCD1 [1], the inhibition at 1 µM amounted to 78% and the IC50 was 0.349 µM. Besides, the IC50 at SCD1 [2] turned out to be 0.39 µM.

Take `Cn1cc(-c2ccc(N3CCC(N4CCc5ccc(Cl)cc54)CC3)nn2)cn1` [Compound #59, 6-chloro-1-(1-(6-(1-methyl-1H-pyrazol-4-yl)pyridazin-3-yl)piperidin-4-yl)indoline]: at SCD1 [1], the inhibition at 1 µM came to 99% and the IC50 was determined as 0.035 µM. Moreover, the IC50 at SCD1 [2] came out at 0.028 µM.

With `COc1ccc2c(c1)N(C1CCN(c3ccc(-c4cnn(C)c4)nn3)CC1)CC2` [Compound #62, 6-methoxy-1-(1-(6-(1-methyl-1H-pyrazol-4-yl)pyridazin-3-yl)piperidin-4-yl)indoline], the inhibition at 1 µM on SCD1 [1] was determined as 79%. The IC50 on SCD1 [1] stood at 0.317 µM; on SCD1 [2], 0.407 µM.

Take `CNC(=O)Cn1cc(-c2ccc(N3CCC(N4CCc5ccc(F)cc54)CC3)nn2)cn1` [Compound #64, 2-(4-(6-(4-(6-fluoroindolin-1-yl)piperidin-1-yl)pyridazin-3-yl)-1H-pyrazol-1-yl)-N-methylacetamide]: on SCD1 [1], the inhibition at 1 µM was 102% and the IC50 came out at 0.015 µM. Besides, on SCD1 [2], the IC50 came to 0.012 µM.

For `Cn1cc(-c2ccc(N3CCC(N4CCc5cc(Cl)ccc54)CC3)nn2)cn1` [Compound #65, 5-chloro-1-(1-(6-(1-methyl-1H-pyrazol-4-yl)pyridazin-3-yl)piperidin-4-yl)indoline], at SCD1 [1], the inhibition at 1 µM was 83% and the IC50 came out at 0.181 µM. For the same compound, the IC50 at SCD1 [2] was determined as 0.218 µM.

For `CCOCc1cnn(-c2ccc(N3CCC(N4CCc5ccc(F)cc54)CC3)nn2)c1` [Compound #72, 1-(1-(6-(4-(ethoxymethyl)-1H-pyrazol-1-yl)pyridazin-3-yl)piperidin-4-yl)-6-fluoroindoline], the inhibition at 1 µM at SCD1 [1] is 99%. Also, the figures for the IC50 on SCD1 [1] and on SCD1 [2] were 0.008 µM and 0.009 µM, respectively.

Consider `Fc1ccc2c(c1)N(C1CCN(c3ccc(-c4ccc(C(F)(F)F)nc4)nn3)CC1)CC2` [Compound #76, 6-fluoro-1-(1-(6-(6-(trifluoromethyl)pyridin-3-yl)pyridazin-3-yl)piperidin-4-yl)indoline], for which, at SCD1 [1], the inhibition at 1 µM was 97%. In addition, the IC50 against SCD1 [1] is 0.016 µM; at SCD1 [2] it was 0.014 µM.

As to `CCOCCn1cc(-c2ccc(N3CCC(N4CCc5ccc(F)cc54)CC3)nn2)cn1` [Compound #78, 1-(1-(6-(1-(2-ethoxyethyl)-1H-pyrazol-4-yl)pyridazin-3-yl)piperidin-4-yl)-6-fluoroindoline], at SCD1 [1], the inhibition at 1 µM came to 99% and it took 0.012 µM to reach half-maximal inhibition (IC50). Further, the IC50 at SCD1 [2] was 0.041 µM.

With `CCCn1cc(-c2ccc(N3CCC(N4CCc5ccc(F)cc54)CC3)nn2)cn1` [Compound #79, 6-fluoro-1-(1-(6-(1-propyl-1H-pyrazol-4-yl)pyridazin-3-yl)piperidin-4-yl)indoline], at SCD1 [1], the inhibition at 1 µM was 97% and the IC50 was 0.022 µM. Further, the IC50 at SCD1 [2] was determined as 0.072 µM.

In the case of `CCn1cc(-c2ccc(N3CCC(c4noc5ccc(F)cc45)CC3)nn2)cn1` [compound 13, 3-(1-(6-(1-ethyl-1H-pyrazol-4-yl)pyridazin-3-yl)piperidin-4-yl)-5-fiuorobenzo[d]isoxazole], at SCD1 [1], the inhibition at 1 µM amounted to 98% and half-maximal inhibition (IC50) required 0.07 µM. Moreover, the IC50 at SCD1 [2] was 0.985 µM.

With `Cc1nnc(-c2ccc(N3CCC(c4noc5ccc(F)cc45)CC3)nn2)o1` [compound 18, 5-fluoro-3-(1-(6-(5-methyl-1,3,4-oxadiazol-2-yl)pyridazin-3-yl)piperidin-4-yl)benzo[d]isoxazole], the figures for the IC50 at SCD1 [1] and on SCD1 [2] were 0.315 µM and 0.248 µM, respectively.

Turning to `OCc1nnc(-c2ccc(N3CCC(c4noc5ccc(F)cc45)CC3)nn2)o1` [compound 20, (5-(6-(4-(5-fluorobenzo[d]isoxazol-3-yl)piperidin-1-yl)pyridazin-3-yl)-1,3,4-oxadiazol-2-yl)methanol], at SCD1 [1], the “% Inh.@ 1 μM” value is given as 96, 96%; the inhibition at 1 µM is 96%; the 50% inhibitory concentration (IC50) is 0.016 µM and 0.014 µM. Moreover, at SCD1 [2], the IC50 is 0.011 µM.

With `Cc1csc(-c2ccc(N3CCC(c4noc5ccc(F)cc45)CC3)nn2)n1` [compound 23, 5-fluoro-3-(1-(6-(4-methylthiazol-2-yl)pyridazin-3-yl)piperidin-4-yl)benzo[d]isoxazoie], on SCD1 [1], the inhibition at 1 µM amounted to 100% and the IC50 was determined as 0.021 µM. For the same compound, on SCD1 [2], the IC50 worked out at 0.003 µM.

(Values after patent US9102669B2, “Substituted piperidinyl-pyridazinyl derivatives useful as SCD 1 inhibitors” (Janssen Pharmaceutica NV, priority 2011, dated 2015).)
